Results from patent US11377425B1, “Small molecule modulators of IL-17” (LEO Pharma A/S, priority 2018, dated 2022).

The compounds below were run against T1, human IL-17AA (Homo sapiens, UniProt Q16552) (assay: IL-8 release assay in human epithelial keratinocytes adult (HEKa)). Conditions: HEKa cells, 3 ng/mL HEK-human IL-17AA + 10 ng/mL human TNFalpha; read-out: Rel EC50 IL-8 release assay.
T1 construct: host or cells: HEK (human embryonic kidney) cells
T1 sequence (Q16552 24-155): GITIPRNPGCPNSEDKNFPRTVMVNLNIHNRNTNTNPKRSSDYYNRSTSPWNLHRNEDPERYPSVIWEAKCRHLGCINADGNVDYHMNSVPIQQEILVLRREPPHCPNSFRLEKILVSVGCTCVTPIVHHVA
Assay type: cell-based
How it was run: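 IL-8 release, quantified by HTRF and normalized to controls, reports IL-17 signaling in HEKa cells treated with compound plus final 3 ng/mL IL-17AA (HEK-derived) and 10 ng/mL TNF-alpha for 68-72 h; TNF-alpha-only wells set 100% inhibition. Four-parameter logistic fits (r^2>0.9) give relative IC50 and Emax; PrestoBlue flags cytotoxicity.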
`Cc1n[nH]c(C)c1-c1ccc(NC(=O)C(NC(=O)c2ccnn2C(C)C)C(C2CC2)C2CC2)cc1` (racemic) [Example 31, N-[1-(dicyclopropylmethyl)-2-[4-(3,5-dimethyl-1H-pyrazol-4-yl)anilino]-2-oxo-ethyl]-2-isopropyl-pyrazole-3-carboxamide] gave an EC50 of under 100 nM. Work on `Cc1n[nH]c(C(C)O)c1-c1ccc(NC(=O)[C@@H](NC(=O)OC(C)(C)C)C2CCCCC2)cc1` (stereo partly drawn) [Example 433, Tert-butyl N-[(1S)-1-cyclohexyl-2-[4-[5-(1-hydroxyethyl)-3-methyl-1H-pyrazol-4-yl]anilino]-2-oxo-ethyl]carbamate] yielded an EC50 of over 1000 nM. Work on `Cc1n[nH]c(C)c1-c1ccc(NC(=O)[C@@H](NC(=O)N2CCCC2)C2CCCCC2)cc1` [Example 477, N-[(1S)-1-cyclohexyl-2-[4-(3,5-dimethyl-1H-pyrazol-4-yl)anilino]-2-oxo-ethyl]pyrrolidine-1-carboxamide] yielded an EC50 of over 1000 nM. Work on `Cc1n[nH]c(C)c1-c1ccc(NC(=O)[C@@H](NC(=O)c2ccnn2C)C(c2ccccc2)c2ccccc2)cc1` [Example 2, N-[(1S)-1-benzhydryl-2-[4-(3,5-dimethyl-1H-pyrazol-4-yl)anilino]-2-oxo-ethyl]-2-methyl-pyrazole-3-carboxamide] yielded an EC50 of 100 to 1000 nM. `Cc1n[nH]c(C)c1-c1ccc(NC(=O)[C@@H](NC(=O)c2cnnn2C)C(C2CCC2)C2CCC2)cc1` [Example 272, N-[(1S)-1-[di(cyclobutyl)methyl]-2-[4-(3,5-dimethyl-1H-pyrazol-4-yl)anilino]-2-oxo-ethyl]-3-methyl-triazole-4-carboxamide] was tested, and the EC50 was under 100 nM. For `Cc1n[nH]c(C)c1-c1ccc(NC(=O)[C@H](CC2CCCCC2)NC(=O)c2ccnn2C)cc1` [Example 15, N-[(1S)-1-(cyclohexylmethyl)-2-[4-(3,5-dimethyl-1H-pyrazol-4-yl)anilino]-2-oxo-ethyl] 2-methyl-pyrazole-3-carboxamide], the EC50 was 100 to 1000 nM. In the case of `Cn1cncc1-c1ccc(NC(=O)[C@@H](NC(=O)c2ccnn2C)[C@H]2CCc3ccc(Br)cc32)cc1` [Example 341, N-[(1S)-1-[(1S)-6-bromoindan-1-yl]-2-[4-(3-methylimidazol-4-yl)anilino]-2-oxo-ethyl]-2-methyl-pyrazole-3-carboxamide], the EC50 is reported as 100 to 1000 nM. `Cc1n[nH]c(C)c1-c1ccc(NC(=O)[C@@H](NC(=O)c2ccnn2C)[C@H]2CCCCC(F)(F)C2)cc1` [Example 7, N-[(1S)-1-[(1S)-3,3-difluorocycloheptyl]-2-[4-(3,5-dimethyl-1H-pyrazol-4-yl)anilino]-2-oxo-ethyl]-2-methyl-pyrazole-3-carboxamide] showed an EC50 of 100 to 1000 nM. `Cc1n[nH]c(C)c1-c1ccc(NC(=O)[C@H](NC(=O)c2ccnn2C)C2CCCCC2)cc1` [Example 103, N-[(1R)-1-cyclohexyl-2-[4-(3,5-dimethyl-1H-pyrazol-4-yl)anilino]-2-oxo-ethyl]-2-methyl-pyrazole-3-carboxamide] showed an EC50 of over 1000 nM. In the case of `CC[C@@H](C)[C@H](NC(=O)c1ccnn1C)C(=O)Nc1ccc(-c2c(C)n[nH]c2C)cc1` [Example 113], the EC50 is reported as over 1000 nM. `CCc1n[nH]c(CC)c1-c1ccc(NC(=O)[C@@H](NC(=O)c2ccnn2C(C)C)C(C2CC2)C2CC2)cc1O` [Example 418, N-[(1S)-1-(dicyclopropylmethyl)-2-[4-(3,5-diethyl-1H-pyrazol-4-yl)-3-hydroxy-anilino]-2-oxo-ethyl]-2-isopropyl-pyrazole-3-carboxamide] showed an EC50 of under 100 nM. `Cc1n[nH]c(C)c1-c1ccc(NC(=O)[C@@H](NC(=O)c2ccnn2C)C2CCC2(C)C)cc1` (single isomer, unassigned) [Example 232] gave an EC50 of 100 to 1000 nM. For `Cn1cncc1-c1ccc(NC(=O)[C@@H](NC(=O)C2(F)CC2)C(c2ccccc2)c2ccccc2)cc1` [Example 347, N-[(1S)-1-benzhydryl-2-[4-(3-methylimidazol-4-yl)anilino]-2-oxo-ethyl]-1-fluoro-cyclopropanecarboxamide], the EC50 was 100 to 1000 nM. `CCC(CC)[C@H](NC(=O)OC(C)(C)C)C(=O)Nc1ccc(-c2c(C)ncn2C)cc1` [Example 89, tert-butyl N-[(1S)-1-[[4-(3,5-dimethylimidazol-4-yl)phenyl]carbamoyl]-2-ethyl-butyl]carbamate] showed an EC50 of over 1000 nM. With `CCn1nncc1C(=O)N[C@H](C(=O)Nc1ccc(-c2c(C)n[nH]c2C)cc1)C(C1CCC1)C1CCC1` [Example 271, N-[(1S)-1-[di(cyclobutyl)methyl]-2-[4-(3,5-dimethyl-1H-pyrazol-4-yl)anilino]-2-oxo-ethyl]-3-ethyl-triazole-4-carboxamide] the EC50 was under 100 nM. For `Cc1cnn(C)c1-c1ccc(NC(=O)[C@@H](NC(=O)c2ccnn2C(C)C)C(C2CC2)C2CC2)cc1` [Example 367, N-[(1S)-1-(dicyclopropylmethyl)-2-[4-(2,4-dimethylpyrazol-3-yl)anilino]-2-oxo-ethyl]-2-isopropyl-pyrazole-3-carboxamide], the EC50 was under 100 nM. For `CCn1nccc1C(=O)N[C@H](C(=O)Nc1ccc(-c2c(C)n[nH]c2C)cc1)C1CCC2(CC1)CC2` [Example 264, N-[(1S)-2-[4-(3,5-dimethyl-1H-pyrazol-4-yl)anilino]-2-oxo-1-spiro[2.5]octan-6-yl-ethyl]-2-ethyl-pyrazole-3-carboxamide], the EC50 was 100 to 1000 nM. `Cn1cncc1-c1ccc(NC(=O)[C@@H](NC(=O)c2ccnn2C)C2CCCCC2)cc1O` [Example 419, N-[(1S)-1-Cyclohexyl-2-[3-hydroxy-4-(3-methylimidazol-4-yl)anilino]-2-oxo-ethyl]-2-methyl-pyrazole-3-carboxamide] gave an EC50 of 100 to 1000 nM. `Cc1n[nH]c(C)c1-c1ccc(NC(=O)[C@@H](NC(=O)c2ccnn2C)C2C[C@@H](C)C[C@@H](C)C2)cc1` (single isomer, unassigned) [Example 268] was tested, and the EC50 was under 100 nM. `CCn1nccc1C(=O)NC(C(=O)Nc1ccc(-c2c(C)n[nH]c2C)cc1)C(C1CCC1)C1CCC1` (single isomer, unassigned) [Example 37, N-[1-[di(cyclobutyl)methyl]-2-[4-(3,5-dimethyl-1H-pyrazol-4-yl)anilino]-2-oxo-ethyl]-2-ethyl-pyrazole-3-carboxamide] gave an EC50 of 100 to 1000 nM. Compound `Cc1n[nH]c(C)c1-c1ccc(NC(=O)C(NC(=O)c2ccnn2[C@@H](C)CO)C2CCCCCCC2)cc1` (single isomer, unassigned) [Example 151] has an EC50 of under 100 nM. `Cn1cncc1-c1ccc(NC(=O)[C@H](Cc2cc(Br)ccc2Cl)NC(=O)c2ccnn2C)cc1` [Example 345, N-[(1S)-1-[(5-bromo-2-chloro-phenyl)methyl]-2-[4-(3-methylimidazol-4-yl)anilino]-2-oxo-ethyl]-2-methyl-pyrazole-3-carboxamide] was tested, and the EC50 was 100 to 1000 nM. For `Cc1n[nH]c(C)c1-c1ccc(NC(=O)[C@@H](NC(=O)N2CCCC2CO)C2CCCCC2)cc1` (single isomer, unassigned) [Example 473], the EC50 was over 1000 nM. `Cc1n[nH]c(C)c1-c1ccc(NC(=O)[C@@H](NC(=O)c2ccnn2CCO)C(C2CCC2)C2CCC2)cc1` [Example 122] gave an EC50 of under 100 nM. Work on `Cc1n[nH]c(C)c1-c1ccc(NC(=O)[C@@H](NC(=O)c2ccnn2CC(F)F)C2CCCCC2)cc1` [Example 106, N-[(1S)-1-cyclohexyl-2-[4-(3,5-dimethyl-1H-pyrazol-4-yl)anilino]-2-oxo-ethyl]-2-(2,2-difluoroethyl)pyrazole-3-carboxamide] yielded an EC50 of under 100 nM. `Cn1cncc1-c1ccc(NC(=O)C(NC(=O)OC(C)(C)C)C(c2ccccc2)C2CCC2)cc1` (single isomer, unassigned) [Example 310, tert-butyl N-[1-[cyclobutyl(phenyl)methyl]-2-[4-(3-methylimidazol-4-yl)anilino]-2-oxo-ethyl]carbamate] gave an EC50 of over 1000 nM. `Cc1n[nH]c(C)c1-c1ccc(NC(=O)[C@@H](NC(=O)c2ccnn2CCS(C)(=O)=O)C(C2CC2)C2CC2)cc1` [Example 158, N-[(1S)-1-(dicyclopropylmethyl)-2-[4-(3,5-dimethyl-1H-pyrazol-4-yl)anilino]-2-oxo-ethyl]-2-(2-methylsulfonylethyl) pyrazole-3-carboxamide] showed an EC50 of under 100 nM. `CCC(CC)[C@H](NC(=O)c1ccnn1C(C)C)C(=O)Nc1ccc(-c2c(C)n[nH]c2C)cc1` [Example 121] gave an EC50 of 100 to 1000 nM. Work on `Cc1ncn(C)c1-c1ccc(NC(=O)C(NC(=O)OC(C)(C)C)C2CCC(F)(F)CC2)cc1` (single isomer, unassigned) [Example 86, tert-butyl N-[1-(4,4-difluorocyclohexyl)-2-[4-(3,5-dimethylimidazol-4-yl)anilino]-2-oxo-ethyl]carbamate] yielded an EC50 of over 1000 nM. For `Cc1nocc1C(=O)N[C@H](C(=O)Nc1ccc(-c2c(C)n[nH]c2C)cc1)C1CCCCCC1` [Example 59, N-[(1S)-1-cycloheptyl-2-[4-(3,5-dimethyl-1H pyrazol-4-yl)anilino]-2-oxo-ethyl]-3-methyl-isoxazole-4-carboxamide], the EC50 was under 100 nM. `Cc1n[nH]c(C)c1-c1ccc(NC(=O)[C@@H](NC(=O)N2CCCCC2CCO)C2CCCCC2)cc1` (single isomer, unassigned) [Example 470] showed an EC50 of over 1000 nM. Compound `Cc1n[nH]c(C)c1-c1ccc(NC(=O)[C@@H](NC(=O)c2ccnn2C(C)C)[C@H]2CC[C@H](C)CC2)cc1` [Example 127, Trans N-[(1S)-2-[4-(3,5-dimethyl-1H-pyrazol-4-yl)anilino]-1-(4-methylcyclohexyl)-2-oxo-ethyl]-2-isopropyl-pyrazole-3-carboxamide] has an EC50 of under 100 nM. `Cc1n[nH]c(C)c1-c1ccc(NC(=O)C(NC(=O)c2ccnn2C)C(C)c2ccccc2)cc1` (single isomer, unassigned) [Example 237] showed an EC50 of over 1000 nM. For `CCn1nccc1C(=O)N[C@H](C(=O)Nc1ccc(-c2c(C)cnn2C)c(O)c1)C(C1CC1)C1CC1` [Example 364, N-[(1S)-1-(dicyclopropylmethyl)-2-[4-(2,4-dimethylpyrazol-3-yl)-3-hydroxy-anilino]-2-oxo-ethyl]-2-ethyl-pyrazole-3-carboxamide], the EC50 was under 100 nM.
